Experiments:
[1] = system: HCT116 WT cells; assay: HCT116 WT cell proliferation / viability (CellTiter-Glo, 6 days); assay type: cell-based; conditions: Homo sapiens, HCT-116, 144 h, HCT116 WT cells, 6 days, CellTiter-Glo; read-out: HCT-116 WT IC50
Outline: (§1)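 IC50 values derive from sigmoidal dose-response fits, some with Hill slope fixed at −1 and top constrained to 100%, others from 4-parameter logistic models. They reflect CellTiter-Glo viability after 6 days of compound exposure at up to 10 or 50 μM.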

[2] = system: HCT116 MTAP null cells; assay: HCT116 MTAP null cell proliferation / viability (CellTiter-Glo, 6 days); assay type: cell-based; conditions: HCT116-MTAP null, 144 h, HCT116 MTAP null cells, 6 days, CellTiter-Glo; read-out: HCT-116 MTAP null IC50
Outline: as §1

SMILES	IC50 [1]	IC50 [2]
CCN(C(=O)c1cc2c3c(c(N)nc2cc1F)COC3)[C@H](C)c1ccc(C(F)(F)F)nn1 [Example 781, 4-amino-N-ethyl-7-fluoro-N-((1R)-1-(6-(trifluoromethyl)-3-pyridazinyl)ethyl)-1,3-dihydrofuro[3,4-c]quinoline-8-carboxamide]	1310 nM	37 nM
C[C@@H](c1ncccn1)N(Cc1ccc(C(F)(F)F)nn1)C(=O)c1ccc2nc(N)c3c(c2c1)CCC3 (single isomer, unassigned) [Example 648]	2500 nM	279 nM
CCN(Cc1ccc(C2CC2)cn1)C(=O)c1ccc2nc(N)c3c(c2c1)CO[C@@H]3C [Example 542, (3R)-4-amino-N-((5-cyclopropyl-2-pyridinyl)methyl)-N-ethyl-3-methyl-1,3-dihydrofuro[3,4-c]quinoline-8-carboxamide]	1540 nM	35 nM
Cc1cc2nc(N)c3c(c2cc1C(=O)N(C)Cc1ccc(C(F)(F)F)cn1)COC3 [Example 503, 4-amino-N,7-dimethyl-N-((5-(trifluoromethyl)-2-pyridinyl)methyl)-1,3-dihydrofuro[3,4-c]quinoline-8-carboxamide]	2000 nM	56 nM
CN(Cc1ccc(-c2ccc(C(F)(F)F)cc2)nn1)C(=O)c1ccc2nc(N)c3cnn(C)c3c2c1 [Example 530, 4-amino-N,1-dimethyl-N-((6-(4-(trifluoromethyl)phenyl)-3-pyridazinyl)methyl)-1H-pyrazolo[4,3-c]quinoline-8-carboxamide]	6560 nM	165 nM
C[C@H]1OCc2c1c(N)nc1ccc(C(=O)N(Cc3ccc(C(F)(F)F)nn3)C3CC3)cc21 [Example 353, (3R)-4-amino-N-cyclopropyl-3-methyl-N-((6-(trifluoromethyl)-3-pyridazinyl)methyl)-1,3-dihydrofuro[3,4-c]quinoline-8-carboxamide]	> 10000 nM	124 nM
Cc1nc(CN(C)C(=O)c2ccc3nc(N)c4c(c3c2)COC4)ccc1Br [Example 677, 4-amino-N-((5-bromo-6-methyl-2-pyridinyl)methyl)-N-methyl-1,3-dihydrofuro[3,4-c]quinoline-8-carboxamide]	> 10000 nM	243 nM
CC1OCc2c1c(N)nc1ccc(C(=O)N(C)Cc3ccc(C(F)(F)F)cn3)cc21 (stereo not drawn) [Example 929, 4-amino-N,3-dimethyl-N-((5-(trifluoromethyl)pyridin-2-yl)methyl)-1,3-dihydrofuro[3,4-c]quinoline-8-carboxamide]	> 1000 nM	200 nM
CCN(Cc1ccc(C(F)(F)F)cn1)C(=O)c1cc2c(cc1Cl)nc(N)c1cnn(C)c12 [Example 793, 4-amino-7-chloro-N-ethyl-1-methyl-N-((5-(trifluoromethyl)-2-pyridinyl)methyl)-1H-pyrazolo[4,3-c]quinoline-8-carboxamide]	296 nM	11 nM
C[C@H](C1CC1)N(Cc1ccc(C(F)(F)F)nn1)C(=O)c1cc2c3c(c(N)nc2cc1F)COC3 [Example 814, 4-amino-N-((1R)-1-cyclopropylethyl)-7-fluoro-N-((6-(trifluoromethyl)-3-pyridazinyl)methyl)-1,3-dihydrofuro[3,4-c]quinoline-8-carboxamide]	1170 nM	44 nM
CCN(C(=O)c1cc2c3c(c(N)nc2cc1F)COC3)[C@H](C)c1ccc(C(F)(F)F)cn1 [Example 762, 4-amino-N-ethyl-7-fluoro-N-((1R)-1-(5-(trifluoromethyl)-2-pyridinyl)ethyl)-1,3-dihydrofuro[3,4-c]quinoline-8-carboxamide]	621 nM	26 nM
Nc1nc2cc(Cl)c(C(=O)N(Cc3ccc(C(F)(F)F)cn3)CC3CC3)cc2c2c1COC2 [Example 464, 4-amino-7-chloro-N-(cyclopropylmethyl)-N-((5-(trifluoromethyl)-2-pyridinyl)methyl)-1,3-dihydrofuro[3,4-c]quinoline-8-carboxamide]	240 nM	7 nM
CCN(C(=O)c1cc2c3c(c(N)nc2cn1)COC3)[C@H](C)c1ccc(C(F)F)cn1 [Example 773, 4-amino-N-((1R)-1-(5-(difluoromethyl)-2-pyridinyl)ethyl)-N-ethyl-1,3-dihydrofuro[3,4-c][1,7]naphthyridine-8-carboxamide]	2630 nM	106 nM
CCOc1ccc(CN(CC)C(=O)c2cc3c4c(c(N)nc3cc2F)COC4)nn1 [Example 747, 4-amino-N-((6-ethoxy-3-pyridazinyl)methyl)-N-ethyl-7-fluoro-1,3-dihydrofuro[3,4-c]quinoline-8-carboxamide]	5090 nM	161 nM
Cn1ncc2c(N)nc3cc(Cl)c(C(=O)N(Cc4ccc(C(F)(F)F)nn4)C4CCC4)cc3c21 [Example 799, 4-amino-7-chloro-N-cyclobutyl-1-methyl-N-((6-(trifluoromethyl)-3-pyridazinyl)methyl)-1H-pyrazolo[4,3-c]quinoline-8-carboxamide]	263 nM	8 nM
Cn1cc(N(Cc2ccc(C(F)(F)F)cn2)C(=O)c2cc3c(cn2)nc(N)c2cnn(C)c23)cn1 [Example 507, 4-amino-1-methyl-N-(1-methyl-1H-pyrazol-4-yl)-N-((5-(trifluoromethyl)-2-pyridinyl)methyl)-1H-pyrazolo[4,3-c][1,7]naphthyridine-8-carboxamide]	373 nM	25 nM
Cn1ncc2c(N)nc3ccc(C(=O)N(Cc4ccc(C(F)(F)F)cn4)CC(F)(F)F)cc3c21 [Example 797, 4-amino-1-methyl-N-(2,2,2-trifluoroethyl)-N-((5-(trifluoromethyl)-2-pyridinyl)methyl)-1H-pyrazolo[4,3-c]quinoline-8-carboxamide]	755 nM	41 nM
CC(c1ncccn1)N(Cc1ccc(C2COC2)cc1)C(=O)c1ccc2nc(N)c3c(c2c1)COC3 (racemic) [Example 449, 4-amino-N-(4-(3-oxetanyl)benzyl)-N-((1R)-1-(2-pyrimidinyl)ethyl)-1,3-dihydrofuro[3,4-c]quinoline-8-carboxamide and 4-amino-N-(4-(3-oxetanyl)benzyl)-N-((1S)-1-(2-pyrimidinyl)ethyl)-1,3-dihydrofuro[3,4-c]quinoline-8-carboxamide]	1230 nM	42 nM
COc1cc(C(F)(F)F)cnc1[C@@H](C)N(C)C(=O)c1cc2c(cc1F)nc(N)c1c2cnn1C (single isomer, unassigned) [Example 866]	11300 nM	309 nM
C[C@H](c1ncc(C(F)(F)F)cc1F)N(C)C(=O)c1cc2c(cn1)nc(N)c1c2cnn1C (single isomer, unassigned) [Example 861]	13600 nM	205 nM
CN(Cc1ccc(C(F)(F)F)cn1)C(=O)c1cc2c3c(c(N)nc2cc1F)COC3 [Example 475, 4-amino-7-fluoro-N-methyl-N-((5-(trifluoromethyl)-2-pyridinyl)methyl)-1,3-dihydrofuro[3,4-c]quinoline-8-carboxamide]	7810 nM	375 nM
C[C@H](c1ccc(C(F)(F)F)nn1)N(C)C(=O)c1ccc2nc(N)c3cnn(C)c3c2c1 (single isomer, unassigned) [Example 855]	28800 nM	164 nM
N#Cc1ccc(CN(CC2(C#N)CC2)C(=O)c2ccc3nc(N)c4c(c3c2)COC4)nc1 [Example 457, 4-amino-N-((1-cyanocyclopropyl)methyl)-N-((5-cyano-2-pyridinyl)methyl)-1,3-dihydrofuro[3,4-c]quinoline-8-carboxamide]	3180 nM	132 nM
C[C@@H](c1ccc(C(F)(F)F)cn1)N(C(=O)c1cc2c3c(c(N)nc2cn1)COC3)c1cnn(C)c1 (single isomer, unassigned) [Example 826]	27100 nM	6720 nM
CN(Cc1ccc(C2CC2)cn1)C(=O)c1cc2c3c(c(N)nc2cc1F)COC3 [Example 372, 4-amino-N-((5-cyclopropyl-2-pyridinyl)methyl)-7-fluoro-N-methyl-1,3-dihydrofuro[3,4-c]quinoline-8-carboxamide]	5610 nM	110 nM
Nc1nc2cc(F)c(C(=O)N(Cc3ccc(C4CC4)cn3)C3CC3)cc2c2c1COC2 [Example 370, 4-amino-N-cyclopropyl-N-((5-cyclopropyl-2-pyridinyl)methyl)-7-fluoro-1,3-dihydrofuro[3,4-c]quinoline-8-carboxamide]	1370 nM	29 nM
N#Cc1ccc(CN(C(=O)c2cc3c4c(c(N)nc3cn2)COC4)C2CC2)nc1 [Example 347, 4-amino-N-((5-cyano-2-pyridinyl)methyl)-N-cyclopropyl-1,3-dihydrofuro[3,4-c][1,7]naphthyridine-8-carboxamide]	43800 nM	712 nM
CC1(CN(Cc2ccc(C(F)(F)F)cn2)C(=O)c2ccc3nc(N)c4c(c3c2)COC4)CC1 [Example 337, 4-amino-N-((1-methylcyclopropyl)methyl)-N-((5-(trifluoromethyl)-2-pyridinyl)methyl)-1,3-dihydrofuro[3,4-c]quinoline-8-carboxamide]	714 nM	33 nM
C[C@H](c1ncccn1)N(Cc1ccc(C(F)(F)F)cn1)C(=O)c1ccc2nc(N)c3c(c2c1)CCCC3 [Example 654, 6-amino-N-((1R)-1-(2-pyrimidinyl)ethyl)-N-((5-(trifluoromethyl)-2-pyridinyl)methyl)-7,8,9,10-tetrahydro-2-phenanthridinecarboxamide]	171 nM	9 nM
C[C@H](c1cnc(C(F)(F)F)cn1)N(C)C(=O)c1ccc2nc(N)c3cnn(C)c3c2c1 [Example 776, 4-amino-N,1-dimethyl-N-((1R)-1-(5-(trifluoromethyl)-2-pyrazinyl)ethyl)-1H-pyrazolo[4,3-c]quinoline-8-carboxamide]	> 10000 nM	150 nM
